Legend:
human CYP3A4 = molecular target: T1, human CYP3A4 (Homo sapiens, UniProt P08684); test: Inhibitory effect on CYP3A4 (Luciferin-IPA); format: in vitro ADME; conditions: test compound 10 μM, 30-minutes pre-incubation, Luciferin-IPA 3 μM
T1 construct: purchased BD Biosciences
Description: Inhibitory Effect on CYP3A4
The dimethyl sulfoxide (DMSO) solution of the test compound with a concentration 1000 times higher than the evaluation concentration was prepared, and a reaction solution was prepared by diluting the solution. Enzyme reaction was performed by incubating in a potassium phosphate buffer solution (pH 7.4) containing 1 μM to 10 μM test compound, 3.2 mM magnesium chloride, 0.2 pmol human CYP3A4 (BD Biosciences), 0.5 mM reduced nicotinamide adenine dinucleotide phosphate (NADPH) and 3 μM Luciferin-IPA (Promega) at 37° C. for 10 minutes. The volume of the reaction solution was 50 μL/well. The 30-minutes pre-incubation group was incubated at 37° C. for 30 minutes before adding the substrate, the Luciferin-IPA solution (12.5 μL/well). At the end of the enzyme reaction, 50 μL/well of a Luciferin detection reagent (Promega) was added to the wells, and the plate was left at room temperature for 20 minutes. Then, the emission intensities were measured with Infinite M1000 (TECAN), and the enzyme activities (%) relative to the value of the group to which the test compound was not added. As a comparative example, aprepitant, which is an NK1 receptor antagonist, was tested in the same manner.
Test was measured by the above test method, and the results are shown in Table 9 when the concentration of the test compound was 10 μM. In the table, Ex. No. means the Example number, and Pre-incubation (30 min) (%) means the enzyme activities (%) of the 30-minutes pre-incubation groups using the test compounds.

[1] = Measurement of drug concentrations in the brain after foot-tapping test; format: in vivo; conditions: male gerbil; 0.3 mg/kg from the jugular vein; brain extracted after foot-tapping was finished; LC/MS
Description: (§1) A male gerbil (Japan SLC) was anesthetized with isoflurane, and 0.3 mg/kg of a test compound was administered from the jugular vein. After 4 hours, GR73632 (5 pmol/5 μL saline), which is an NK1 receptor agonist, was administered into the cerebral ventricle at the part 1 mm lateral to and 4.5 mm below the bregma in the head, under anesthesia with isoflurane. After the administration, the gerbil was moved to an observation cage, and the foot-tapping period during 30 minutes after the recovery of the righting reflex was measured. As a comparative example, aprepitant, which is an NK1 receptor antagonist, was tested in the same manner. The foot-tapping inhibition rate (%) of each test compound was calculated by the following equation. Foot-tapping inhibition rate (%)={1−(Foot-tapping period when test compound was administered)/(Foot-tapping period when solvent was administered)}×100 (2) Measurement of Drug Concentrations
After foot-tapping was finished, laparotomy was performed immediately under anesthesia with ether, and a blood sample was taken from the abdominal vena cava. At the same time, the brain was extracted. Through a quantitative analysis using liquid chromatography-mass spectrometry (LC/MS), the concentrations of the test compound in the plasma and the brain were measured.
In the table, Ex. No. means the Example number. […]

human NK1 receptor = molecular target: T2, human NK1 receptor (Homo sapiens, UniProt P25103); test: Affinity for human NK1 receptor (125I-substance P receptor binding test, membrane fraction); conditions: membrane fraction of human NK1 receptor-expressing 293T cells, room temperature 60 minutes, read-out: pIC50 (inverse logarithm of the concentration required for 50% inhibition of 125I-substance P binding) (converted)
T2 construct: expressed in transfected cells; host or cells: 293T cells (RIKEN), transient transfection with pcDNA3.1(-) plasmid
T2 sequence (P25103 whole entry): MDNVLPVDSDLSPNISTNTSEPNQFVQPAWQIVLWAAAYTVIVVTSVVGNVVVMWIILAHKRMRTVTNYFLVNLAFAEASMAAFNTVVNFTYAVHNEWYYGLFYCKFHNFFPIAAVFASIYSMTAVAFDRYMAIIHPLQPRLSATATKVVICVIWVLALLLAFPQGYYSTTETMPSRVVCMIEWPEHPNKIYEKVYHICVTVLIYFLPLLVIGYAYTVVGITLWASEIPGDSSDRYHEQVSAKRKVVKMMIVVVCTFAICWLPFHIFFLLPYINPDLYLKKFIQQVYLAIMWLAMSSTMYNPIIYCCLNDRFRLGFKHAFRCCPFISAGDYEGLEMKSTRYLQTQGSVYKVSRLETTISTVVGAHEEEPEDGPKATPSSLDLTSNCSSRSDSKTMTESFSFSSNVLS
Description: Affinity for Human NK1 Receptor
(3) Measurement of Binding Affinity to Human NK1 Receptor
(3-1) Preparation of Membrane Fraction from Human NK1 Receptor-Expressing Cells
Human NK1 receptor-expressing cells were prepared in a 175 cm^2 culture flask (Nippon Becton Dickinson). The formation of a complex of the human NK1 receptor expression plasmid and Lipofectamine 2000 was performed by calculating the culture area ratio and increasing the scale of the method described in the above 2-4 by the ratio. The human NK1 receptor-expressing cells were collected in a buffer solution for the membrane fraction preparation (50 mM Tris (Wako Pure Chemical), 120 mM sodium chloride (Wako Pure Chemical Industries), 5 mM potassium chloride (Wako Pure Chemical Industries), 1 mM ethylenediaminetetraacetic acid (Sigma), 0.002 mg/mL chymostatin (Peptide Institute), 0.04 mg/bacitracin (Wako Pure Chemical Industries), 0.005 mg/mL phosphoramidon (Peptide Institute) and 0.5 mM phenylmethylsulfonyl fluoride (Wako Pure Chemical Industries), pH7.4) and centrifuged at 1,880 g for 10 minutes, and the cell sediment was suspended in the buffer solution for the membrane fraction preparation. After freezing and thawing the cells once, the cells were homogenized using a Dounce-type homogenizer (cooled on ice, 1000 rpm, 20 times). The homogenized cell suspension was centrifuged at 20,000 rpm for 10 minutes, and the supernatant was removed to obtain cell sediment. The cell sediment was suspended again in the buffer solution for the membrane fraction preparation and homogenized using a Dounce-type homogenizer (cooled on ice, 1000 rpm, 30 times). The cell suspension was centrifuged at 20,000 rpm for 10 minutes, and the supernatant was removed to obtain cell sediment. The same homogenization and centrifugation were repeated again, and final cell sediment was obtained. The final cell sediment was suspended in a buffer solution for the receptor binding test (50 mM Tris (Wako Pure Chemical Industries), 3 mM manganese chloride (Wako Pure Chemical Industries), 0.002 mg/mL chymostatin (Peptide Institute), 0.04 mg/bacitracin (Wako Pure Chemical Industries) and 0.02% bovine serum albumin (Sigma), pH 7.4), and the protein concentration was measured using BCA Protein Assay Kit (Pierce).
(3-2) Receptor Binding Test
The buffer solution for the receptor binding test was dispensed to the wells of a 96-well assay plate (Greiner) at 22.5 μL/well. DMSO solutions of a test compound, which were prepared at an 80-time higher concentration using 100% dimethyl sulfoxide (DMSO), were added to the wells at 2.5 μL/well (final concentrations of 1 nM to 100 nM), and the solutions were mixed. As a radiolabeled ligand, ^125I-substance P (Substance P, [^125I]Tyr^8-, PerkinElmer) was used. ^125I-substance P was diluted with the buffer solution for the receptor binding test to a concentration resulting in […] and added to the 96-well assay plate, and the solutions were mixed. The membrane fraction prepared from the human NK1 receptor-expressing cells was diluted with the buffer solution for the receptor binding test to a concentration resulting in 8 to 10 μg/well, suspended until the suspension became in such a homogenous state that the suspension could flow through a 27G injection needle smoothly and then added to the 96-well assay plate at 150 μL/well. Then, the plate was incubated at room temperature for 60 minutes while shaking the plate. […]

NK1 receptor = molecular target: T3, NK1 receptor (Meriones unguiculatus, UniProt Q5DUB1); test: Effect on foot-tapping induced by NK1 receptor agonist GR73632 in gerbil; format: in vivo; conditions: male gerbil; 0.3 mg/kg from the jugular vein; GR73632 into the cerebral ventricle after 4 hours; foot-tapping period during 30 minutes
T3 construct: from tissue; host or cells: living male gerbil, central nervous system
T3 sequence (Q5DUB1 whole entry): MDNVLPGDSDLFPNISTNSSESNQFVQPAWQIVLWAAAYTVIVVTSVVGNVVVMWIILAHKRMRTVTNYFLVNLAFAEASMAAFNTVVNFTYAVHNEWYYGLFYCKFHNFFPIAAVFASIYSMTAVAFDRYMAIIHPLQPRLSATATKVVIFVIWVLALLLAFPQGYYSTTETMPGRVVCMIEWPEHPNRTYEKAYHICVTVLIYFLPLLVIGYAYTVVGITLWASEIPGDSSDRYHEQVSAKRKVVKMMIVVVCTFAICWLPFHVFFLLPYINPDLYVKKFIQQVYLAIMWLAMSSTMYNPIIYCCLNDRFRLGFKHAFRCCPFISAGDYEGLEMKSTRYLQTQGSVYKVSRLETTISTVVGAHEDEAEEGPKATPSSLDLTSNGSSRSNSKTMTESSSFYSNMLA
Description: (1) Effect on Foot-tapping
The test compound solution was prepared by dissolving the test compound in a vehicle (a mixture of 50% N,N-dimethylacetamide (Wako Pure Chemical Industries), 30% propylene glycol (Wako Pure Chemical Industries), 4% 2-hydroxypropyl-β-cyclodextrin (Wako Pure Chemical Industries) and 16% distilled water).
as §1
In the table, Ex. No. means the Example number. Inhibition (%) means the foot-tapping inhibition rate, and Conc. […]

T1 sequence (P08684 whole entry): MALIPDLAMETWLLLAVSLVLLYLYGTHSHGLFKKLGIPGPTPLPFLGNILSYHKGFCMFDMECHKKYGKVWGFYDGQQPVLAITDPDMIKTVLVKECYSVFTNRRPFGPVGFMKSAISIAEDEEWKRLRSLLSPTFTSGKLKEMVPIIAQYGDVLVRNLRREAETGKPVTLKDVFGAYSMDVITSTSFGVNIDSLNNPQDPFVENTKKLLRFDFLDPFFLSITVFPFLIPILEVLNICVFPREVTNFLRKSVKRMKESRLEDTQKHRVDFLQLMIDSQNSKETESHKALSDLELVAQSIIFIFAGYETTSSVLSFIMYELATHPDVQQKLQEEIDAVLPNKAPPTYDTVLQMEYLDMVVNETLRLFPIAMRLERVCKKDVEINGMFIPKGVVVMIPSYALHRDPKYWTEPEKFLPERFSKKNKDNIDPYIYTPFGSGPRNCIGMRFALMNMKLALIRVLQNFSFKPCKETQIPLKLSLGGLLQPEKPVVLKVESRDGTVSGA

Preincubation (30 min) (%) (enzyme activities relative to group without test compound) (human CYP3A4) | Conc. (nM) (drug concentration in the brain) [1] | IC50 (human NK1 receptor) [nM] | Inhibition(%) (foot-tapping inhibition rate) (NK1 receptor) | SMILES
18 | 162 | 0.851 | 100 | Cc1cc(F)ccc1[C@H]1CN(C[C@H]2CC[C@@H](CC(=O)O)CC2)CCN1C(=O)N(C)[C@H](C)c1cc(C(F)(F)F)cc(C(F)(F)F)c1 [Example 4, cis-{4-[(S)-4-{[(R)-1-(3,5-Bistrifluoromethylphenyl)ethyl]methylcarbamoyl}-3-(4-fluoro-2-methylphenyl)piperazin-1-ylmethyl]cyclohexyl}acetic acid]
21 | 181 | 0.851 | 100 | Cc1cc(F)ccc1[C@H]1CN(C[C@H]2CC[C@H](CC(=O)O)CC2)CCN1C(=O)N(C)[C@H](C)c1cc(C(F)(F)F)cc(C(F)(F)F)c1 [Example 5, trans-{4-[(S)-4-{[(R)-1-(3,5-Bistrifluoromethylphenyl)ethyl]methylcarbamoyl}-3-(4-fluoro-2-methylphenyl)piperazin-1-ylmethyl]cyclohexyl}acetic acid]

From US10399949B2, “NK1 receptor antagonist” (KISSEI PHARMACEUTICAL CO., LTD., priority 2015, dated 2019)
